Data as given in patent publication US9340590B2 (priority 2011, dated 2016).
Several values for one entry are separate records, joined by “and”; a condition that tells them apart may be missing. Equal values may be shown once. Entries after “also recorded” stand apart in the source; their conditions may differ. Read-outs that look alike come from different tables or passages of the source.

Legend:
[1] = biological target: T1, hNav1.7 (Homo sapiens, UniProt Q15858); experiment: cell-based; format: cell-based
T1 sequence (Q15858 whole entry, looked up): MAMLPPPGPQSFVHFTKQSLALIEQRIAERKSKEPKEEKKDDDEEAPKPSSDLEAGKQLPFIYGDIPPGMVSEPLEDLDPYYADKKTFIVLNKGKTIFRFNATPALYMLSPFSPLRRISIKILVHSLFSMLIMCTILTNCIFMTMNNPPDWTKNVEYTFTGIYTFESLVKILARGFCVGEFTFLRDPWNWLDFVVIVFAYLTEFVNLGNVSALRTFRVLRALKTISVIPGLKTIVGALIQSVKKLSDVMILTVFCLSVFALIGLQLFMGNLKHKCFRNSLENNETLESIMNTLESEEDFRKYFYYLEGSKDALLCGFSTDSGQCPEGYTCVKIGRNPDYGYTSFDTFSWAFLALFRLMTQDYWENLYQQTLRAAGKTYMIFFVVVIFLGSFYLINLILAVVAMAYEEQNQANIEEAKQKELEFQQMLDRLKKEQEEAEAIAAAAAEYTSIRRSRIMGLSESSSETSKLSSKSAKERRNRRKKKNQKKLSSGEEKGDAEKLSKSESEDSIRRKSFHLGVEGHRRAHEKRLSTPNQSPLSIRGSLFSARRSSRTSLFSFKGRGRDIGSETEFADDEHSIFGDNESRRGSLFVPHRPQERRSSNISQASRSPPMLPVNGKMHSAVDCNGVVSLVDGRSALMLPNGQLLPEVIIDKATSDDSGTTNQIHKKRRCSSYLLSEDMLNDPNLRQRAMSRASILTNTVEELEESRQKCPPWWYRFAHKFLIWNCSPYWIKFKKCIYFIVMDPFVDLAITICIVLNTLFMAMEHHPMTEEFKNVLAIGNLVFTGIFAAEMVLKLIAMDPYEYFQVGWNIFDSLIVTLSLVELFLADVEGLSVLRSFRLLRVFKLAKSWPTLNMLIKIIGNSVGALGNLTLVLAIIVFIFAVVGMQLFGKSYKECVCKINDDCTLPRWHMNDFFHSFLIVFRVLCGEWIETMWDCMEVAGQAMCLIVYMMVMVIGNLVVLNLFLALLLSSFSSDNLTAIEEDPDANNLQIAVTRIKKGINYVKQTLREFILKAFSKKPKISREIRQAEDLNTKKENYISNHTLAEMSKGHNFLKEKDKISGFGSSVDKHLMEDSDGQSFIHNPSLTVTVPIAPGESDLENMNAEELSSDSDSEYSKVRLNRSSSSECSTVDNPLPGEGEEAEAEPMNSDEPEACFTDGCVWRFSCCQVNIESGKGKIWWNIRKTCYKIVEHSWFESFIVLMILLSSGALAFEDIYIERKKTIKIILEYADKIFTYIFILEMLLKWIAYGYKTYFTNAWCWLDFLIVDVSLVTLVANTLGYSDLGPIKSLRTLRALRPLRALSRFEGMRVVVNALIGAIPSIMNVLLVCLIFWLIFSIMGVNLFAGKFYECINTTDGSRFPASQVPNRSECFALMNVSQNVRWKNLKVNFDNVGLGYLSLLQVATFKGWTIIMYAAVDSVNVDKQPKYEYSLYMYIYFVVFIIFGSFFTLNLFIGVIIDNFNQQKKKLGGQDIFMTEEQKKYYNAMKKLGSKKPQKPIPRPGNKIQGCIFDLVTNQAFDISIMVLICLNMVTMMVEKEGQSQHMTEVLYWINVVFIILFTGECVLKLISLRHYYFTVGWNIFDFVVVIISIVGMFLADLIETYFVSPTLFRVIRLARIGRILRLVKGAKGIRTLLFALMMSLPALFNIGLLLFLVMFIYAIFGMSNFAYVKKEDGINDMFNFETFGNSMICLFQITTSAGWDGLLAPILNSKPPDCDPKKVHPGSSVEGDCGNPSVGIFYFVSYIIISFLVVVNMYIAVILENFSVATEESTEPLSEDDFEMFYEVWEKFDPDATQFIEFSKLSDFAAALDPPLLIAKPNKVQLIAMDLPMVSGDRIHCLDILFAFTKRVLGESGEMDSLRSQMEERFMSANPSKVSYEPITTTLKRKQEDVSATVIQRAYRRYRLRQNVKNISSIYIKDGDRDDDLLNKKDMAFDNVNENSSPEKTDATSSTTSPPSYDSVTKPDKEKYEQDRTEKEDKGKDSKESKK

[2] = biological target: T2, hNav1.5 (Homo sapiens, UniProt Q14524); experiment: cell-based; conditions: IonWorks Quattro; clamped to −110 mV, depolarized to −10 mV, 5 min after compound; n=2; read-out: IWQ Use Nav1.5
T2 sequence (Q14524 whole entry, looked up): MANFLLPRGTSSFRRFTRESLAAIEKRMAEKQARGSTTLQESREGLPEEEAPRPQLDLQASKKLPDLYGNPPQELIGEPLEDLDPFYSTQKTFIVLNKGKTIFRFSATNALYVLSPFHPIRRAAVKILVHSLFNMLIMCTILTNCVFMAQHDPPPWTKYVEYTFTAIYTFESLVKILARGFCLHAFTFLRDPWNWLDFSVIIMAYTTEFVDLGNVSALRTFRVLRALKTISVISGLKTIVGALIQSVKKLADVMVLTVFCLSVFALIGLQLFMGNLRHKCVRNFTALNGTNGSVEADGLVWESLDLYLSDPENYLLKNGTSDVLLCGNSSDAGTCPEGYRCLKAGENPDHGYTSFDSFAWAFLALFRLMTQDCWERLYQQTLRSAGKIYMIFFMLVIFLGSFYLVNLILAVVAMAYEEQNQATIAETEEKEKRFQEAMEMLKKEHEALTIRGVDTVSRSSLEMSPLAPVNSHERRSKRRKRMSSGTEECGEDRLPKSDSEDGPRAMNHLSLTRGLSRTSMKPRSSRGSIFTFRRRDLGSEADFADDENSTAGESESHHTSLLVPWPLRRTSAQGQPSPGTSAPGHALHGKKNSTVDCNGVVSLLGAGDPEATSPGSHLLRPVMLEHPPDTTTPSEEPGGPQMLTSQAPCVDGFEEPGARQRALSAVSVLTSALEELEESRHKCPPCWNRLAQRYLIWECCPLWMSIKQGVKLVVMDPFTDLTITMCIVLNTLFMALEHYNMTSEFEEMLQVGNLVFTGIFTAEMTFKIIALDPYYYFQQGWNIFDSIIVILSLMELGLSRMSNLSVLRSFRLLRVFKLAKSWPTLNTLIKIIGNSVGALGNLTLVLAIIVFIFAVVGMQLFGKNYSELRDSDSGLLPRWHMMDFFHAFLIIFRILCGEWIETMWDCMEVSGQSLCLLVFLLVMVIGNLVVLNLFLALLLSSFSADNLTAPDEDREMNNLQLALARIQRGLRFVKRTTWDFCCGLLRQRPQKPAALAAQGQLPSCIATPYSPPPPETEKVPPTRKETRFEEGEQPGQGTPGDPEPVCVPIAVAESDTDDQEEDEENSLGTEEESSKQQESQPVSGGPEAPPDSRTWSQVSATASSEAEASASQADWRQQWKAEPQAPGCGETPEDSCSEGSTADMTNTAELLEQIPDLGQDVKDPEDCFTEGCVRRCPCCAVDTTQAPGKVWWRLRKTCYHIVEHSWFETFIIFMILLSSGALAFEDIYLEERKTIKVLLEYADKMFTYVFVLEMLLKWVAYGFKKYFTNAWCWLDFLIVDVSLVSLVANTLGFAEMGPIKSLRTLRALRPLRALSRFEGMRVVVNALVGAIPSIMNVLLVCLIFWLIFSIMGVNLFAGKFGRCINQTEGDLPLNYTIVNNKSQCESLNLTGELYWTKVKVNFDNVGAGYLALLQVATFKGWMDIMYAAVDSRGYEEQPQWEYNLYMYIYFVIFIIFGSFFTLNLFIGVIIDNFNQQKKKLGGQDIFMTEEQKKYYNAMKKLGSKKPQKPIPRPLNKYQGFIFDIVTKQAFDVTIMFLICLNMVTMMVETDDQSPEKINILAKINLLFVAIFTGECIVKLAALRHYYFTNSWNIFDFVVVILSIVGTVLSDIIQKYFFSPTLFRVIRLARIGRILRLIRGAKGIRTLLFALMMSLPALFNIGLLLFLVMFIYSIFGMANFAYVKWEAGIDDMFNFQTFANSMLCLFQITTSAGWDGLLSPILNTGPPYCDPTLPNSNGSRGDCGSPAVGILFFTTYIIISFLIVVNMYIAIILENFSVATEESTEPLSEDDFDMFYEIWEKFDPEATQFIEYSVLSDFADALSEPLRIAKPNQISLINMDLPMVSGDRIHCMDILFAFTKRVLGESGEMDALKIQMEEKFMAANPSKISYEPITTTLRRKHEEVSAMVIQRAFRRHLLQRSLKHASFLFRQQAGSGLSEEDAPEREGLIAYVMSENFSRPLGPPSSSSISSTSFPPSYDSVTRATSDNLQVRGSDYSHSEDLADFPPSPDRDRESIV

[3] = biological target: T3, hNav1.3 (Homo sapiens, UniProt Q9NY46); experiment: cell-based; conditions: IonWorks Quattro; clamped to −110 mV, depolarized to −10 mV, 5 min after compound; n=2; read-out: IWQ Use Nav1.3
[4] = biological target: T1, hNav1.7; experiment: cell-based; conditions: Nav1.7 Use IC50
[5] = biological target: T3, hNav1.3; experiment: cell-based; format: cell-based; conditions: Nav1.3 Use IC50
[6] = biological target: T2, hNav1.5; experiment: cell-based
[7] = biological target: hNav1.2 (Homo sapiens, UniProt Q99250); experiment: cell-based; conditions: partially inactivated channels; read-out: IC50 against partially inactivated hNav1.2 channels
[8] = biological target: T1, hNav1.7; format: cell-based
[9] = tested on: TTX-sensitive Nav channels in mouse DRG neurons; format: cell-based
[10] = tested on: voltage-gated potassium currents; format: cell-based; conditions: 500 nM; rat DRG neuron, step to 0 mV from −90 mV
[11] = tested on: fast sodium current; format: cell-based; conditions: 500 nM; rat DRG neuron, step to 0 mV from −90 mV
[12] = biological target: T2, hNav1.5; experiment: cell-based; conditions: PatchXpress counterscreen; held at −80 mV, prepulse −120 mV, test step −30 mV; read-out: IC50 against hNav1.5 (counterscreen)
[13] = human plasma, 37° C., incubation time 0 hr (normalisation point)
[14] = mouse plasma, 37° C., incubation time 0 hr (normalisation point)
[15] = tested on: formalin pain model in male CD-1 mice; conditions: for time spent lifting/licking, first phase / time spent lifting/licking, second phase: third study
[16] = tested on: locomotor activity in male CD-1 mice
[17] = tested on: isolated perfused rabbit heart
[18] = tested on: isolated perfused rabbit heart; remark: listed apart in the source
[19] = in vivo; conditions: CD-1, mouse
[20] = in vivo; conditions: male, CD-1, mouse, sc
[21] = in vivo; conditions: male, CD-1, mouse, sc, terminal exposure (peptide plasma concentration at 2 h post peptide injection)
[22] = in vitro; conditions: human, plasma
[23] = in vitro; conditions: mouse, plasma
[24] = biological target: hERG (Homo sapiens, UniProt Q12809); experiment: cell-based
Sequence of hERG (Q12809 whole entry): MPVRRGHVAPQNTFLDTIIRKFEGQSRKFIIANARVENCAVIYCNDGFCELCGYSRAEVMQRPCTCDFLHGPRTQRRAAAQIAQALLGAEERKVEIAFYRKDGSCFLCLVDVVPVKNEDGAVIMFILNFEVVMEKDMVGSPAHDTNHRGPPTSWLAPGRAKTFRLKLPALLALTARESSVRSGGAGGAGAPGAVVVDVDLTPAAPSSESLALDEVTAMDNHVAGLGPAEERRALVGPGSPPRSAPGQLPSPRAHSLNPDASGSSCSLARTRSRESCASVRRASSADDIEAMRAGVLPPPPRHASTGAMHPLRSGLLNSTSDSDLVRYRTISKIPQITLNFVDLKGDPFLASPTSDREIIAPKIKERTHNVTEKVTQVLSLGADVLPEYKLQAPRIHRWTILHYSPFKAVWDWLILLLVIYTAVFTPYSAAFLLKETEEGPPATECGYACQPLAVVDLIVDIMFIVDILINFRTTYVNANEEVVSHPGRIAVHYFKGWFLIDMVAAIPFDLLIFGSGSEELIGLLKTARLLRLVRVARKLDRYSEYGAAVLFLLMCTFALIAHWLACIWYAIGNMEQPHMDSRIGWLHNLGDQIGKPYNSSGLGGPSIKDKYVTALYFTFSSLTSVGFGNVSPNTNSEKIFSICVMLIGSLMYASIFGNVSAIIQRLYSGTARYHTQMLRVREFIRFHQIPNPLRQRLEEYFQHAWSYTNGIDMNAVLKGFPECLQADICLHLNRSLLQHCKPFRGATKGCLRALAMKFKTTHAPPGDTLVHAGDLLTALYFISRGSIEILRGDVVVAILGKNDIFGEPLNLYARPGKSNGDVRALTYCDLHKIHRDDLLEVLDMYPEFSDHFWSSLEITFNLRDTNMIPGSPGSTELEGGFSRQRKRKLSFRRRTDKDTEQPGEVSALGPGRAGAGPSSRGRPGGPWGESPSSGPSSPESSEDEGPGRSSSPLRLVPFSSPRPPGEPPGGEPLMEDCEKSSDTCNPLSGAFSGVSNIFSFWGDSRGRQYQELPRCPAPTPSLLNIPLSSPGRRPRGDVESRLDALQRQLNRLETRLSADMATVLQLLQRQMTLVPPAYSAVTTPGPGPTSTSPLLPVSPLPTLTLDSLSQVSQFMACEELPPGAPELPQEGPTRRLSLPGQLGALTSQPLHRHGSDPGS

[25] = biological target: Nav1.3 (Rattus norvegicus, UniProt P08104); conditions: read-out: TTX IC50; cited from earlier work
[26] = biological target: Nav1.4 (Rattus norvegicus, UniProt P15390); conditions: read-out: TTX IC50; cited from earlier work
[27] = biological target: Nav1.6 (Rattus norvegicus, UniProt O88420); conditions: read-out: TTX IC50; cited from earlier work
[28] = biological target: Nav1.7 (Rattus norvegicus, UniProt O08562); conditions: read-out: TTX IC50; cited from earlier work
[29] = biological target: Nav1.8 (Rattus norvegicus, UniProt Q62968); conditions: read-out: TTX IC50; cited from earlier work
[30] = first study, 5 mg/kg s.c., 1-hour pre-treatment
[31] = later studies (FIGS. 99-110), 5 mg/kg s.c., 1-hour pre-treatment

CC[C@H](C)[C@@H]1NC(=O)[C@@H]2CSSC[C@@H]3NC(=O)[C@H](C(C)C)NC(=O)[C@H](CC(C)C)NC(=O)[C@H](CC(N)=O)NC(=O)[C@@H]4CCCN4C(=O)[C@H](CCCNC(=N)N)NC(=O)[C@H](CSSC[C@H](NC(=O)[C@@H](N)CC(=O)O)C(=O)N[C@@H](CC(C)C)C(=O)NCC(=O)N[C@@H](C)C(=O)N[C@@H](CCSC)C(=O)N[C@@H](CCCNC(=N)N)C(=O)N[C@@H](CCCCN)C(=O)N2)NC(=O)[C@H](CSSC[C@@H](C(=O)N[C@@H](CCCCN)C(=O)N[C@@H](Cc2ccc(O)cc2)C(=O)N[C@H](C(=O)N[C@@H](Cc2ccccc2)C(N)=O)C(C)C)NC(=O)[C@H](Cc2c[nH]c4ccccc24)NC(=O)[C@H](CCCCN)NC(=O)[C@H](Cc2cnc[nH]2)NC(=O)[C@H]([C@@H](C)O)NC(=O)[C@H](CCCNC(=N)N)NC(=O)[C@H](CO)NC3=O)NC(=O)[C@H](CCCCN)NC(=O)[C@H](CC(=O)O)NC(=O)[C@H](CC(N)=O)NC(=O)[C@H](CC(=O)O)NC(=O)[C@@H]2CCCN2C1=O [SEQ ID NO: 22]
IC50 [1]: 640 nM | IC50 [2]: 10300 nM | IC50 [3]: 1750 nM | IC50 [4]: 18 nM and 34 nM and 30 nM and 14 nM | IC50 [5]: 129 nM and 158 nM | IC50 [6]: > 10000 nM | IC50 [7]: 265 nM | inhibition of the Nav1.7 current [8]: complete inhibition | IC50 ([8]; read-out: IC50 against partially inactivated hNav1.7 channels): 13.2 nM | block of TTX-sensitive Nav current, time course of increasing concentrations [9]: blocked nearly all TTX-sensitive Nav current | block of TTX-sensitive versus TTX-resistant Nav current [9]: selectively blocked TTX-sensitive Nay current but not TTX-resistant Nav current | IC50 ([9]; cells held at −140 mV, read-out: IC50 against TTX-sensitive sodium channels in mDRG neurons): 17 nM | effect on voltage-gated potassium currents [10]: did not block voltage-gated potassium currents | effect on fast sodium current [11]: blocked fast sodium current; also recorded: steadily decreased | IC50 [12]: > 30000 nM | % peptide remaining [13]: 100% | % peptide remaining [14]: 100% | tolerability in mice (1 mg/kg i.v.): tolerated | exposure in blood (1 mg/kg s.c.): measurable exposure | sustained peptide concentration in the plasma (5 mg/kg s.c.): about 0.6 μM | time plasma concentration was sustained (5 mg/kg s.c.): 3 h | plasma concentrations with significant reproducible reduction in paw lifting/licking ([15]; first two mouse formalin experiments): 0.60 to 0.80 µM | time spent lifting and/or licking the affected paw, second phase (5-40 minutes post formalin injection) ([15]; mouse, in vivo): significantly reduced | time spent lifting/licking, first phase ([15]; peptide 1 mg/kg s.c.): appeared to increase | time spent lifting/licking, second phase ([15]; peptide 1 mg/kg s.c.): not significantly different | time spent lifting/licking, first phase ([15]; peptide 3 mg/kg s.c.): appeared to increase | time spent lifting/licking, second phase ([15]; peptide 3 mg/kg s.c.): appeared to significantly increase | total fine movement [16, 30]: significantly reduced | total time rearing [16, 30]: significantly reduced | total basic movement [16, 31]: significantly reduced | total fine movement [16, 31]: significantly reduced | total rearing [16, 31]: significantly reduced | total time rearing [16, 31]: significantly reduced | peptide plasma concentrations resulting in significant effects on locomotor activity ([16]; mouse, in vivo): > 1.5 µM | HR, normalized value, mean [17]: −0.18% | JT, normalized value, mean [17]: −4.57% | JTcF, normalized value, mean [17]: −4.60% | PR, normalized value, mean [17]: −3.52% | QRS, normalized value, mean [17]: −1.55% | QT, normalized value, mean [17]: −4.19% | QTcF, normalized value, mean [17]: −4.22% | heart rate ([17]; 1 μM, 20 minutes): no effects | ventricular depolarization and conduction (QRS and PR intervals) ([17]; 1 μM, 20 minutes): no effects | ventricular repolarization (QTc or JTc intervals) ([17]; 1 μM, 20 minutes): no delaying effects | Flow, mean, normalized value [18]: 0.29% | LVDP, mean, normalized value [18]: −3.16% | LVDevP, normalized value [18]: −7.22% | LVSP, mean, normalized value [18]: −8.81% | dP/dt+, mean, normalized value [18]: −6.55% | dP/dt−, mean, normalized value [18]: −2.93% | LV contractility (dP/dt+) ([18]; 1 μM, 20 minutes): no effects | coronary blood flow (CF) ([18]; 1 μM, 20 minutes): no effects | coronary vasculature ([18]; 1 μM, 20 minutes): no direct effects | half-life ([19]; sc, 5 mg/kg): 36 min | level at time molar ([19]; sc, 5 mg/kg): ~600 nM | half-life ([19]; male, iv, 1 mg/kg): ~15 min | level at time molar at […] ([20]; 0.5 mg/kg, terminal exposure (peptide plasma concentration at 45 min post formalin injection), second study, 0.5 mg/kg s.c.): 40 nM | level at time molar at […] ([20]; 1 mg/kg, terminal exposure (peptide plasma concentration at 45 min post formalin injection), third study, 1 mg/kg s.c.): 200 ± 50 nM | level at time molar at […] ([20]; 3 mg/kg, terminal exposure (peptide plasma concentration at 45 min post formalin injection), third study, 3 mg/kg s.c.): 530 ± 230 nM | level at time molar at […] ([20]; 5 mg/kg, terminal exposure (peptide plasma concentration at 45 min post formalin injection), second study, 5.0 mg/kg s.c.): 580 ± 260 nM | level at time molar at […] ([20]; 5 mg/kg, terminal exposure (peptide plasma concentration at 45 min post formalin injection), third study, 5 mg/kg s.c.): 1840 ± 180 nM | level at time molar at […] ([20]; 5 mg/kg, terminal plasma exposure (peptide plasma concentration at 45 min post formalin injection), first study, 5 mg/kg s.c.): 800 ± 210 nM | level at time molar at 2 h ([21]; 3 mg/kg, first study, 3 mg/kg s.c.): 890 ± 330 nM | level at time molar at 2 h ([21]; 5 mg/kg, first study, 5 mg/kg s.c.): 1790 ± 380 nM | level at time molar at 2 h ([21]; 5 mg/kg, later studies, 5 mg/kg s.c.): 2100 ± 470 nM | remaining at 2 h [22]: 105% | remaining at 4 h [22]: 99% | remaining at 8 h [22]: 101% | remaining at 24 h [22]: 105% | remaining at 2 h [23]: 106% | remaining at 4 h [23]: 107% | remaining at 8 h [23]: 105% | remaining at 24 h [23]: 99% | IC50 [24]: > 10000 nM

NC1=N[C@H](O)[C@H]2[C@H]3O[C@]4(O)O[C@@H]([C@@H](O)[C@@]2(N1)[C@@H]4O)[C@]3(O)CO [TTX, tetrodotoxin]
IC50 [25]: 2 to 15 nM | IC50 [26]: 5 nM | IC50 [27]: 1 nM | IC50 [28]: 4 nM | IC50 [29]: > 50000 nM
